This note sets out measurements from patent publication US8414938B2, “Schisandrae fructus extracts for inhibition or prevention of H1N1 influenza virus infection and its application thereof” (National Defense Medical Center, priority 2011, dated 2013).

≈ marks a conversion by molar mass, not a printed value.

The test system of the test is H1N1-TR (Tamiflu resistant virus strain). Put plainly: microbe, parasite or virus in culture. The settings on record: unidentified influenza virus, H1N1, read-out: MIC, H1N1-TR. In kind it is cell-based.

As to `COc1cc2c(c(OC)c1OC)-c1c(cc3c(c1OC)OCO3)C[C@H](C)[C@@](C)(O)[C@H]2OC(=O)c1ccccc1` (atropisomer, axis not shown) [Benzoylgomisin P], the MIC is 12.5 µg/mL (≈ 23.3 µM).
As to `C/C=C(\C)C(=O)O[C@H]1c2cc(OC)c(OC)c(OC)c2-c2c(cc3c(c2OC)OCO3)C[C@H](C)[C@@]1(C)O` (atropisomer, axis not shown) [Tigloylgomisin P], the MIC came to 75 µg/mL (≈ 146 µM).
Consider `COc1cc([C@@H]2c3cc(OC)c(O)cc3C(=O)[C@H](C)[C@H]2C)ccc1O` [Epiwulignan A1], for which the MIC turned out to be 12.5 µg/mL (≈ 36.5 µM).
Turning to `NC(=O)c1ncn([C@@H]2O[C@H](CO)[C@@H](O)[C@H]2O)n1` [Ribavirin, ribavirin, reference compound], the MIC is 3.12 µg/mL (≈ 12.8 µM).
As for `COc1cc2c(cc1O)C(=O)[C@@H](C)[C@@H](C)[C@@H]2c1ccc(OC)c(OC)c1` [Schisandrone], the MIC turned out to be 6.25 µg/mL (≈ 17.5 µM).
With `COc1cc([C@@H]2c3cc(OC)c(O)cc3C(=O)[C@@H](C)[C@H]2C)ccc1O` [Wulignan A1], the MIC is 12.5 µg/mL (≈ 36.5 µM).
